Results from patent EP4722201A1, “3-PHENYLISOXAZOLINE-5-CARBOXAMIDE COMPOUND, AND PREPARATION METHOD THEREFOR, HERBICIDAL COMPOSITION THEREOF AND USE THEREOF” (Jiangsu Flag Chemical Industry Co., Ltd, priority 2023, dated 2024).

Columns and labels:
Assay in all cases: Indoor herbicide activity determination, Seed Treatment; pre-emergence (soil spray)
Type in all cases: in vivo
Aegilops tauschii = settings: read-out: Herbicidal activities (inhibition rate) Aegilops tauschii; for inhibition at 120 g/ha: 120 g a.i./ha; for inhibition at 60 g/ha: 60 g a.i./ha
Method in brief: (§1)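 Weed seeds were sown in 7 cm pots of sandy nutrient soil (pH 6.1, 1% organic matter), covered, bottom-watered and held 24 h in a constant-temperature illuminated room before the soil surface was sprayed in a traveling spray tower. Fresh-weight inhibition versus untreated plants was scored 21 days later.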

Alopecurus japonicus = system: Alopecurus japonicus
Method in brief: as §1

Alopecurus myosuroides = system: Alopecurus myosuroides
Method in brief: as §1

Cyperus iria = settings: read-out: Herbicidal activities (inhibition rate) Cyperus iria; for inhibition at 120 g/ha: 120 g a.i./ha; for inhibition at 60 g/ha: 60 g a.i./ha
Method in brief: as §1

Digitaria sanguinalis = settings: read-out: Herbicidal activities (inhibition rate) Digitaria sanguinalis; for inhibition at 120 g/ha: 120 g a.i./ha; for inhibition at 60 g/ha: 60 g a.i./ha
Method in brief: as §1

Eclipta prostrata = settings: read-out: Herbicidal activities (inhibition rate) Eclipta prostrata; for inhibition at 120 g/ha: 120 g a.i./ha; for inhibition at 60 g/ha: 60 g a.i./ha
Method in brief: as §1

Eleusine indica = system: Eleusine indica
Method in brief: as §1

Leptochloa chinensis = system: Leptochloa chinensis
Method in brief: as §1

Lolium multiflorum = system: Lolium multiflorum
Method in brief: as §1

SMILES | inhibition at 120 g/ha (Aegilops tauschii) [%] | Herbicidal activity (inhibition rate class), Alopecurus japonicus (Alopecurus japonicus; Dosage 240 g a.i./ha) | Herbicidal activity (inhibition rate class), Alopecurus myosuroides (Alopecurus myosuroides; Dosage 240 g a.i./ha) | inhibition at 120 g/ha (Cyperus iria) [%] | inhibition at 120 g/ha (Digitaria sanguinalis) [%] | inhibition at 120 g/ha (Eclipta prostrata) [%] | Herbicidal activity (inhibition rate class), Eleusine indica (Eleusine indica; Dosage 240 g a.i./ha) | Herbicidal activity (inhibition rate class), Leptochloa chinensis (Leptochloa chinensis; Dosage 240 g a.i./ha) | Herbicidal activity (inhibition rate class), Lolium multiflorum (Lolium multiflorum; Dosage 240 g a.i./ha) | inhibition at 60 g/ha (Aegilops tauschii) [%] | Herbicidal activity (inhibition rate class), Alopecurus japonicus (Alopecurus japonicus; Dosage 120 g a.i./ha) | Herbicidal activity (inhibition rate class), Alopecurus myosuroides (Alopecurus myosuroides; Dosage 120 g a.i./ha) | inhibition at 60 g/ha (Cyperus iria) [%] | inhibition at 60 g/ha (Digitaria sanguinalis) [%] | inhibition at 60 g/ha (Eclipta prostrata) [%] | Herbicidal activity (inhibition rate class), Eleusine indica (Eleusine indica; Dosage 120 g a.i./ha) | Herbicidal activity (inhibition rate class), Leptochloa chinensis (Leptochloa chinensis; Dosage 120 g a.i./ha) | Herbicidal activity (inhibition rate class), Lolium multiflorum (Lolium multiflorum; Dosage 120 g a.i./ha)
CSCCOC(=O)[C@@H]1C=C[C@H](NC(=O)C2(C)CC(c3cc(Cl)cc(OC(F)(F)F)c3)=NO2)C1 (stereo partly drawn) [I-487] | 80 to 100 | A (A indicates that the inhibition rate was greater than or equal to 80% to 100%) | A (A indicates that the inhibition rate was greater than or equal to 80% to 100%) | 80 to 100 | 60 to 80 | 80 to 100 | A (A indicates that the inhibition rate was greater than or equal to 80% to 100%) | A (A indicates that the inhibition rate was greater than or equal to 80% to 100%) | A (A indicates that the inhibition rate was greater than or equal to 80% to 100%) | – | – | – | – | – | – | – | – | –
CC1(C(=O)N[C@H]2C=C[C@@H](C(=O)O)C2)CC(c2cc(F)cc(OC(F)(F)F)c2)=NO1 (stereo partly drawn) [I-488] | 80 to 100 | A (A indicates that the inhibition rate was greater than or equal to 80% to 100%) | A (A indicates that the inhibition rate was greater than or equal to 80% to 100%) | 80 to 100 | 60 to 80 | 80 to 100 | A (A indicates that the inhibition rate was greater than or equal to 80% to 100%) | A (A indicates that the inhibition rate was greater than or equal to 80% to 100%) | A (A indicates that the inhibition rate was greater than or equal to 80% to 100%) | – | – | – | – | – | – | – | – | –
CSCCOC(=O)[C@@H]1C=C[C@H](NC(=O)C2(C)CC(c3cc(F)cc(OC(F)(F)F)c3)=NO2)C1 (stereo partly drawn) [I-490] | 80 to 100 | A (A indicates that the inhibition rate was greater than or equal to 80% to 100%) | A (A indicates that the inhibition rate was greater than or equal to 80% to 100%) | 80 to 100 | 80 to 100 | 80 to 100 | A (A indicates that the inhibition rate was greater than or equal to 80% to 100%) | A (A indicates that the inhibition rate was greater than or equal to 80% to 100%) | A (A indicates that the inhibition rate was greater than or equal to 80% to 100%) | – | – | – | – | – | – | – | – | –
CC1(C(=O)N[C@H]2C=C[C@@H](C(=O)OCCS(C)(=O)=O)C2)CC(c2cc(F)cc(OC(F)(F)F)c2)=NO1 (stereo partly drawn) [I-492] | 80 to 100 | A (A indicates that the inhibition rate was greater than or equal to 80% to 100%) | A (A indicates that the inhibition rate was greater than or equal to 80% to 100%) | 60 to 80 | 80 to 100 | 80 to 100 | A (A indicates that the inhibition rate was greater than or equal to 80% to 100%) | A (A indicates that the inhibition rate was greater than or equal to 80% to 100%) | A (A indicates that the inhibition rate was greater than or equal to 80% to 100%) | – | – | – | – | – | – | – | – | –
CC1(C(=O)N[C@H]2C=C[C@@H](C(=O)O)C2)CC(c2cc(F)cc(C(F)(F)F)c2)=NO1 (stereo partly drawn) [I-493] | 80 to 100 | A (A indicates that the inhibition rate was greater than or equal to 80% to 100%) | A (A indicates that the inhibition rate was greater than or equal to 80% to 100%) | 80 to 100 | 60 to 80 | 60 to 80 | A (A indicates that the inhibition rate was greater than or equal to 80% to 100%) | A (A indicates that the inhibition rate was greater than or equal to 80% to 100%) | A (A indicates that the inhibition rate was greater than or equal to 80% to 100%) | – | – | – | – | – | – | – | – | –
COC(=O)[C@@H]1C=C[C@H](NC(=O)C2(C)CC(c3cc(F)cc(OC(F)F)c3)=NO2)C1 (stereo partly drawn) [I-505] | 80 to 100 | A (A indicates that the inhibition rate was greater than or equal to 80% to 100%) | A (A indicates that the inhibition rate was greater than or equal to 80% to 100%) | 80 to 100 | 80 to 100 | 80 to 100 | B (B indicates that the inhibition rate was greater than or equal to 60% to less than 80%) | A (A indicates that the inhibition rate was greater than or equal to 80% to 100%) | A (A indicates that the inhibition rate was greater than or equal to 80% to 100%) | – | – | – | – | – | – | – | – | –
COC(=O)[C@@H]1C=C[C@H](NC(=O)C2(C)CC(c3cc(Cl)cc(C(F)(F)F)c3)=NO2)C1 (stereo partly drawn) [I-511] | 80 to 100 | A (A indicates that the inhibition rate was greater than or equal to 80% to 100%) | A (A indicates that the inhibition rate was greater than or equal to 80% to 100%) | 80 to 100 | 80 to 100 | 80 to 100 | A (A indicates that the inhibition rate was greater than or equal to 80% to 100%) | A (A indicates that the inhibition rate was greater than or equal to 80% to 100%) | A (A indicates that the inhibition rate was greater than or equal to 80% to 100%) | – | – | – | – | – | – | – | – | –
O=C(O)[C@@H]1C=C[C@H](NC(=O)[C@@]2(C(F)(F)F)CC(c3cc(F)cc(C(F)(F)F)c3)=NO2)C1 [I-516] | – | – | – | – | – | – | – | – | – | 80 to 100 | A (A indicates that the inhibition rate was greater than or equal to 80% to 100%) | A (A indicates that the inhibition rate was greater than or equal to 80% to 100%) | 80 to 100 | 80 to 100 | 60 to 80 | A (A indicates that the inhibition rate was greater than or equal to 80% to 100%) | A (A indicates that the inhibition rate was greater than or equal to 80% to 100%) | A (A indicates that the inhibition rate was greater than or equal to 80% to 100%)
C#C[C@@H](C)OC(=O)[C@@H]1C=C[C@H](NC(=O)[C@@]2(C(F)(F)F)CC(c3cc(F)cc(C(F)(F)F)c3)=NO2)C1 [I-521] | – | – | – | – | – | – | – | – | – | 80 to 100 | A (A indicates that the inhibition rate was greater than or equal to 80% to 100%) | A (A indicates that the inhibition rate was greater than or equal to 80% to 100%) | 80 to 100 | 80 to 100 | 80 to 100 | A (A indicates that the inhibition rate was greater than or equal to 80% to 100%) | A (A indicates that the inhibition rate was greater than or equal to 80% to 100%) | A (A indicates that the inhibition rate was greater than or equal to 80% to 100%)
